According to US9593109B2, “Bicyclic agonists of GPR131 and uses thereof” (CYMABAY THERAPEUTICS, INC., priority 2011, dated 2017):

molecular target: T1, human GPR131 (Homo sapiens, UniProt Q8TDU6); assay: Stimulation of cAMP (agonism of GPR131), FRET cAMP assay; assay type: cell-based; details: 0.5 h; 1.1 μM compound; compared to maximal stimulatory activity of lithocholic acid (LCA) determined at 3.3 μM; stable cell line expressing human GPR131; 37° C. for 30 minutes; read-out: Percent Activity @ 1.1 μM (of 3.3 uM LCA) (%)
T1 construct: expressed in transfected cells
T1 sequence (Q8TDU6 1-330): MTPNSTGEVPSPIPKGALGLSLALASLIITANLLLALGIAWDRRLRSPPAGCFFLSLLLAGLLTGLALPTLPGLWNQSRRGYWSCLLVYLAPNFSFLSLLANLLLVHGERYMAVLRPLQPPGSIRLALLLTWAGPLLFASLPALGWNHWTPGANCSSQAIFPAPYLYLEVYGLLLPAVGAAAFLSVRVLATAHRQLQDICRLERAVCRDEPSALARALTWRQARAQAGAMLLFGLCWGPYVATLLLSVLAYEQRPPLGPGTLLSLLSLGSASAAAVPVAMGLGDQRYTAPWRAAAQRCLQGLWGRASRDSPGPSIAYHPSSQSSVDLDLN
Procedure: This assay was developed using a stable cell line expressing human GPR131.
To measure cAMP activity in response to GPR131 agonists, GPR131 cells suspended in DMEM/F12 medium with 1 mM IBMX were seeded in 384 well plates at 5000 cells per well. After incubating with test compounds at 37° C. for 30 minutes cAMP was measured using a fluorescene resonance energy transfer cAMP kit from Cis Bio (Bedford, Mass.) according to the manufacturer's instructions. Briefly, cells were lysed, and cAMP levels determined by competitive immunoassay using D2 labeled cAMP, and europium cryptate tagged anti cAMP antibody. Decreases in the FRET signal (fluorescence ratio (665 nm/620 […]) correspond to increases in intracellular cAMP levels.
Activities of test compounds in Table 1 below are expressed as percent activity at 1.1 μM compound compared to the maximal stimulatory activity of lithocholic acid (LCA) (determined at 3.3 μM LCA).

Compared with `N#Cc1ccc(-n2ccnc2-c2c(-c3cc(Cl)ccc3Cl)nc3ccccn23)cc1` [Compound 567, 4-(2-(2-(2,5-Dichlorophenyl)imidazo[1,2-a]pyridin-3-yl)-1H-imidazol-1-yl)benzonitrile], `N#Cc1ccc(-n2cnnc2-c2c(-c3cc(Cl)ccc3Cl)nc3ccccn23)cc1` [Compound 515, 4-(3-(2-(2,5-Dichlorophenyl)imidazo[1,2-a]pyridin-3-yl)-4H-1,2,4-triazol-4-yl)benzonitrile] is higher in activation at 1.1 µM: 99.9% for the first, 100% for the second.

Compared with `CC(C)c1ccc(-n2cnnc2-c2c(-c3cc(Cl)ccc3Cl)nc3ccccn23)cc1` [Compound 530, 2-(2,5-Dichlorophenyl)-3-(4-(4-isopropylphenyl)-4H-1,2,4-triazol-3-yl)imidazo[1,2-a]pyridine], `Clc1ccc(-n2cnnc2-c2c(-c3cc(Cl)ccc3Cl)nc3ccccn23)cc1` [Compound 553, 3-(4-(4-Chlorophenyl)-4H-1,2,4-triazol-3-yl)-2-(2,5-dichlorophenyl)imidazo[1,2-a]pyridine] is higher in activation at 1.1 µM: 98.9% for the first, 99.9% for the second.

Compared with `Clc1ccc(-n2cncc2-c2c(-c3cc(Cl)ccc3Cl)nc3ccccn23)cc1` [Compound 507, 3-(1-(4-Chlorophenyl)-1H-imidazol-5-yl)-2-(2,5-dichlorophenyl)imidazo[1,2-a]pyridine], `Cc1nc(-c2c(-c3cc(Cl)ccc3Cl)nc3ccccn23)n(-c2ccc(Cl)cc2)n1` [Compound 504, 3-(1-(4-Chlorophenyl)-3-methyl-1H-1,2,4-triazol-5-yl)-2-(2,5-dichlorophenyl)imidazo[1,2-a]pyridine] is lower in activation at 1.1 µM: 100% for the first, 97.4% for the second.

`FC(F)(F)c1ccc(-n2ccnc2-c2c(-c3cc(Cl)ccc3Cl)nc3ccccn23)cc1` [Compound 564, 2-(2,5-Dichlorophenyl)-3-(1-(4-(trifluoromethyl)phenyl)-1H-imidazol-2-yl)imidazo[1,2-a]pyridine] and `FC(F)(F)c1ccc(-n2cnnc2-c2c(-c3cc(Cl)ccc3Cl)nc3ccccn23)cc1` [Compound 513, 2-(2,5-Dichlorophenyl)-3-(4-(4-(trifluoromethyl)phenyl)-4H-1,2,4-triazol-3-yl)imidazo[1,2-a]pyridine] are the same in activation at 1.1 µM: 100% for the first, 100% for the second.

`Clc1ccc(-n2ncnc2-c2c(-c3ccccc3Cl)nc3ccccn23)cc1` [Compound 503, 2-(2-Chlorophenyl)-3-(1-(4-chlorophenyl)-1H-1,2,4-triazol-5-yl)imidazo[1,2-a]pyridine] and `Clc1ccc(-n2nnnc2-c2c(-c3ccccc3Cl)nc3ccccn23)cc1` [Compound 500, 2-(2-Chlorophenyl)-3-(1-(4-chlorophenyl)-1H-tetrazol-5-yl)imidazo[1,2-a]pyridine] are the same in activation at 1.1 µM: 97.4% for the first, 97.4% for the second.

First: FC(F)(F)c1ccc(-n2nnnc2-c2c(-c3cc(Cl)ccc3Cl)nc3cccnn23)cc1 [Compound 563, 2-(2,5-Dichlorophenyl)-3-(1-(4-(trifluoromethyl)phenyl)-1H-tetrazol-5-yl)imidazo[1,2-b]pyridazine]
Second: FC(F)(F)c1ccc(-n2nnnc2-c2c(-c3cc(Cl)ccc3Cl)nc3ccccn23)cc1 [Compound 562, 2-(2,5-Dichlorophenyl)-3-(1-(4-(trifluoromethyl)phenyl)-1H-tetrazol-5-yl)imidazo[1,2-a]pyridine]
The activation at 1.1 µM of the first is higher: 99.5% for the first, 97.9% for the second.

`Clc1ccc(-n2nnnc2-c2c(-c3cc(Cl)ccc3Cl)nc3cccnn23)cc1` [Compound 555, 3-(1-(4-Chlorophenyl)-1H-tetrazol-5-yl)-2-(2,5-dichlorophenyl)imidazo[1,2-b]pyridazine] and `Clc1ccc(-n2ccnc2-c2c(-c3cc(Cl)ccc3Cl)nc3cccnn23)cc1` [Compound 561, 3-(1-(4-Chlorophenyl)-1H-imidazol-2-yl)-2-(2,5-dichlorophenyl)imidazo[1,2-b]pyridazine] are the same in activation at 1.1 µM: 100% for the first, 100% for the second.

Going from `Clc1ccccc1-c1nc2ccccn2c1-c1nncn1-c1ccc2cn[nH]c2c1` [Compound 522, 6-(3-(2-(2-Chlorophenyl)imidazo[1,2-a]pyridin-3-yl)-4H-1,2,4-triazol-4-yl)-1H-indazole] to `Clc1ccc(Cl)c(-c2nc3ccccn3c2-c2nncn2-c2ccc3cn[nH]c3c2)c1` [Compound 516, 6-(3-(2-(2,5-Dichlorophenyl)imidazo[1,2-a]pyridin-3-yl)-4H-1,2,4-triazol-4-yl)-1H-indazole], the activation at 1.1 µM rises from 91.4% to 99.8%.

First: Cn1ccc2cc(-n3cnnc3-c3c(-c4cc(Cl)ccc4Cl)nc4ccccn34)ccc21 [Compound 536, 2-(2,5-Dichlorophenyl)-3-(4-(1-methyl-1H-indol-5-yl)-4H-1,2,4-triazol-3-yl)imidazo[1,2-a]pyridine]
Second: Cn1ncc2cc(-n3cnnc3-c3c(-c4cc(Cl)ccc4Cl)nc4ccccn34)ccc21 [Compound 519, 5-(3-(2-(2,5-Dichlorophenyl)imidazo[1,2-a]pyridin-3-yl)-4H-1,2,4-triazol-4-yl)-1-methyl-1H-indazole]
The activation at 1.1 µM of the first is higher: 100% for the first, 99.9% for the second.

First: Cn1ncc2ccc(-n3cnnc3-c3c(-c4cc(Cl)ccc4Cl)nc4ccccn34)cc21 [Compound 520, 6-(3-(2-(2,5-Dichlorophenyl)imidazo[1,2-a]pyridin-3-yl)-4H-1,2,4-triazol-4-yl)-1-methyl-1H-indazole]
Second: Clc1ccc(Cl)c(-c2nc3ccccn3c2-c2nncn2-c2ccc3[nH]ncc3c2)c1 [Compound 514, 5-(3-(2-(2,5-Dichlorophenyl)imidazo[1,2-a]pyridin-3-yl)-4H-1,2,4-triazol-4-yl)-1H-indazole]
The activation at 1.1 µM of the first is higher: 95.7% for the first, 93.3% for the second.

Compared with `Cc1nnc(-c2c(-c3cc(Cl)ccc3Cl)nc3ccccn23)n1-c1ccc(Cl)cc1` [Compound 505, 3-(4-(4-Chlorophenyl)-5-methyl-4H-1,2,4-triazol-3-yl)-2-(2,5-dichlorophenyl)imidazo[1,2-a]pyridine], `CSc1nnc(-c2c(-c3cc(Cl)ccc3Cl)nc3ccccn23)n1-c1ccc(Cl)cc1` [Compound 528, 3-(4-(4-Chlorophenyl)-5-(methylthio)-4H-1,2,4-triazol-3-yl)-2-(2,5-dichlorophenyl)imidazo[1,2-a]pyridine] is lower in activation at 1.1 µM: 99.1% for the first, 86.8% for the second.

Going from `Cc1ccc(-n2cnnc2-c2c(-c3cc(Cl)ccc3Cl)nc3ccccn23)cn1` [Compound 540, 2-(2,5-Dichlorophenyl)-3-(4-(6-methylpyridin-3-yl)-4H-1,2,4-triazol-3-yl)imidazo[1,2-a]pyridine] to `CCc1ccc(-n2cnnc2-c2c(-c3cc(Cl)ccc3Cl)nc3ccccn23)cc1` [Compound 529, 2-(2,5-Dichlorophenyl)-3-(4-(4-ethylphenyl)-4H-1,2,4-triazol-3-yl)imidazo[1,2-a]pyridine], the activation at 1.1 µM rises from 96% to 99.6%.

Going from `N#Cc1ccc(-n2nnnc2-c2c(-c3cc(Cl)ccc3Cl)nc3ccccn23)cc1` [Compound 566, 4-(5-(2-(2,5-Dichlorophenyl)imidazo[1,2-a]pyridin-3-yl)-1H-tetrazol-1-yl)benzonitrile] to `CN(C)c1ccc(-n2cnnc2-c2c(-c3cc(Cl)ccc3Cl)nc3ccccn23)cc1` [Compound 510, 4-(3-(2-(2,5-Dichlorophenyl)imidazo[1,2-a]pyridin-3-yl)-4H-1,2,4-triazol-4-yl)-N,N-dimethylaniline], the activation at 1.1 µM rises from 99.7% to 100%.

Compared with `Fc1cccc(-n2cnnc2-c2c(-c3cc(Cl)ccc3Cl)nc3ccccn23)c1` [Compound 535, 2-(2,5-Dichlorophenyl)-3-(4-(3-fluorophenyl)-4H-1,2,4-triazol-3-yl)imidazo[1,2-a]pyridine], `Fc1ccccc1-n1cnnc1-c1c(-c2cc(Cl)ccc2Cl)nc2ccccn12` [Compound 534, 2-(2,5-Dichlorophenyl)-3-(4-(2-fluorophenyl)-4H-1,2,4-triazol-3-yl)imidazo[1,2-a]pyridine] is lower in activation at 1.1 µM: 99.6% for the first, 96.8% for the second.

Going from `Clc1ccc(Cl)c(-c2nc3cccnn3c2-c2nncn2-c2ccc3cn[nH]c3c2)c1` [Compound 523, 3-(4-(1H-Indazol-6-yl)-4H-1,2,4-triazol-3-yl)-2-(2,5-dichlorophenyl)imidazo[1,2-b]pyridazine] to `Clc1ccc(Cl)c(-c2nc3ccccn3c2-c2nncn2-c2ccc3scnc3c2)c1` [Compound 518, 5-(3-(2-(2,5-Dichlorophenyl)imidazo[1,2-a]pyridin-3-yl)-4H-1,2,4-triazol-4-yl)benzo[d]thiazole], the activation at 1.1 µM rises from 95.2% to 98.4%.

Going from `Clc1ccc(-n2cnnc2-c2c(-c3ccccc3Cl)nc3ccccn23)cc1` [Compound 501, 2-(2-Chlorophenyl)-3-(4-(4-chlorophenyl)-4H-1,2,4-triazol-3-yl)imidazo[1,2-a]pyridine] to `Clc1ccc(-n2nnnc2-c2c(-c3cc(Cl)ccc3Cl)nc3n2CCCC3)cc1` [Compound 559, 3-(1-(4-Chlorophenyl)-1H-tetrazol-5-yl)-2-(2,5-dichlorophenyl)-5,6,7,8-tetrahydroimidazo[1,2-a]pyridine], the activation at 1.1 µM falls from 99.4% to 94.6%.
